Patent US4171367A, “Pyrazolyl amino imidazolines” (Abbott Laboratories, priority 1977, dated 1979)
Counter-ions that a name gives are not always drawn. Like-named read-outs stand apart in the source and are kept apart here.

Test system: reverse passive Arthus reaction
Experiment: reverse passive Arthus reaction test in rats (anti-inflammatory effect, oral)
Assay type: in vivo, rat (male Sprague-Dawley)
Settings: 4 h, read-out: Percent Inhibition of Arthus Reaction; for inhibition in vivo at 25 mg/kg: oral dose 25 mg/kg
From the text: The anti-inflammatory activity of the compounds of this invention was established using the reverse passive Arthus reaction in the rat as described by G. W. Carter and R. A. Krause in Federation Proceedings, Vol. 35, p. 774, 1976. The carrageenin rat paw edema test (Winter et al, Proc. Soc. Exp. Biol. Med., 111, 554, 1962) can be used to establish anti-inflammatory activity, however, unlike carrageenin induced edema, the Arthus reaction is a well characterized immune reaction which bears close resemblance to the pathogenisis of rheumatoid arthritis.
The Arthus reaction represents one of the oldest and best studied models of immunological injury. It is produced by the injection of antigen locally into a hyperimmunized animal or by the injection of a small amount of antibody into the skin of an animal that has just previously been given a large amount of soluble antigen intravenously. In both cases the antigen and antibody become deposited in the walls of small venules. Plasma complement is rapidly bound and activated. Within a few hours neutrophils (PMNs) accumulate, resulting in disruption of the basement membrane of vessel walls and marked edema and hemorrage in the surrounding tissue.
The reverse passive Arthus reaction test in rats is conducted as follows. Male Sprague-Dawley rats weighing approximately 130-160 g. are used, 4 rats per group. All animals are injected intravenously with 0.5 ml. 0.075% Bovine Serum Albumin (B.S.A.)+0.2% Evans Blue solution. Each rat then receives an oral dose of drug; one drug is administered per group.
Thirty minutes subsequent to drug dosing, each animal is injected intradermally with 0.05 ml. 1.44% Anti-B.S.A. into the dorsal skin. Four hours later the animals are sacrificed, the dorsal skin reflexed, and the lesion excised. Two perpendicular diameters of each lesion are measured. The average diameters of the lesions from the treated groups are compared with the average diameters from the control group to determine any drug effect.
The anti-inflammatory activity of representative compounds of this invention, as determined by the reverse passive Arthus reaction test in rats, is summarized in Table I.

Structure (SMILES) | inhibition in vivo at 100 mg/kg (oral dose 100 mg/kg, rat) [%] | further results
CC(C)c1nn(C)c(NC2=NCCN2)c1Br [R1=Me, R2=Me2CH, R3=Br, R4=H, 2(4-Bromo-3-isopropyl-1-methyl-5-pyrazolyl)amino-2-imidazoline hydrobromide] |  | inhibition in vivo at 50 mg/kg (Rattus norvegicus, po): 37%; inhibition in vivo at 100 mg/kg (Rattus norvegicus, po): 42%
CC(=O)N1CCN=C1Nc1ccnn1-c1ccccc1 [R1=C6H5, R2=H, R3=H, R4=COCH3, 1-Acetyl-2-(1-phenyl-5-pyrazolyl)-amino-2-imidazoline] | 70 | 
Cc1cc(NC2=NCCN2)n(CCC(C)C)n1 [R1=Me2CHCH2CH2, R2=Me, R3=H, R4=H, 2[1-(3-Methylbutyl)-3-methyl-5-pyrazolyl]amino-2-imidazoline] |  | inhibition in vivo at 100 mg/kg (Rattus norvegicus, po): 15%
CC(C)c1cc(NC2=NCCN2)n(C)n1 [R1=Me, R2=Me2CH, R3=H, R4=H, 2(3-Isopropyl-1-methyl-5-pyrazolyl)-amino-2-imidazoline] | 42 | inhibition in vivo at 50 mg/kg (oral dose 50 mg/kg, rat): 33%
CC(=O)N1CCN=C1Nc1cc(C)nn1C(C)C [R1=Me2CH, R2=Me, R3=H, R4=COCH3, 1-Acetyl-2(1-isopropyl-3-methyl-5-pyrazolyl)amino-2-imidazoline] | 39 | inhibition in vivo at 50 mg/kg (oral dose 50 mg/kg, rat): 30%
c1ccc(-c2cc(NC3=NCCN3)n(-c3ccccc3)n2)cc1 [R1=C6H5, R2=C6H5, R3=H, R4=H, 2(1,3-Diphenyl-5-pyrazolyl) amino-2-imidazoline] | 32 | 
Brc1c(-c2ccccc2)nn(-c2ccccc2)c1NC1=NCCN1 [R1=C6H5, R2=C6H5, R3=Br, R4=H, 2(4-Bromo-1,3-diphenyl-5-pyrazolyl) amino-2-imidazoline hydrobromide] | 17 | 
Cc1cc(NC2=NCCN2)n(C)n1 [R1=Me, R2=Me, R3=H, R4=H, 2(1,3-Dimethyl-5-pyrazolyl) amino-b 2-imidazoline] | 55 | 
c1ccc(-n2nccc2NC2=NCCN2)cc1 [R1=C6H5, R2=H, R3=H, R4=H, 2-(1-Phenyl-5-pyrazolyl)-amino-2-imidazoline] | 75 | inhibition in vivo at 25 mg/kg (rat): 62%
Brc1cnn(-c2ccccc2)c1NC1=NCCN1 [R1=C6H5, R2=H, R3=Br, R4=H, 2-(4-Bromo-1-phenyl-5-pyrazolyl)-amino-2-imidazoline hydrochloride] | 59 | inhibition in vivo at 25 mg/kg (rat): 41%
Cc1cc(NC2=NCCN2)n(C(C)C)n1 [R1=Me2CH, R2=Me, R3=H, R4=H, 2-(1-Isopropyl-3-methyl-5-pyrazolyl)amino-2-imidazoline] | 29 | inhibition in vivo at 50 mg/kg (oral dose 50 mg/kg, rat): 20%
Cc1nn(C)c(NC2=NCCN2)c1Br [R1=Me, R2=Me, R3=Br, R4=H, 2(4-Bromo-1,3-dimethyl-5-pyrazolyl)-amino-2-imidazoline] |  | inhibition in vivo at 50 mg/kg (oral dose 50 mg/kg, rat): 45%
Cc1nn(C)c(Cl)c1NC1=NCCN1 [R1=Me, R2=Me, R3=(5) (C1), R4=H, 2-(4-chloro-1,3-dimethyl-4-pyrazolyl)-amino-2-imidazoline hydrochloride] | 69 | inhibition in vivo at 10 mg/kg (oral dose 10 mg/kg, rat): 49%; inhibition in vivo at 25 mg/kg (rat): 64%
Cc1nn(C)c(NC2=NCCN2)c1I [R1=Me, R2=Me, R3=I, R4=H, 2(1,3-Dimethyl-4-iodo-5-pyrazolyl)-amino-2-imidazoline] | 43 | 
Cc1nn(CCC(C)C)c(NC2=NCCN2)c1Br [R1=Me2CHCH2CH2, R2=Me, R3=Br, R4=H, 2[4-Bromo-1-(3-methylbutyl)-3-methyl-5-pyrazolyl]amino-2-imidazoline hydrochloride] |  | inhibition in vivo at 100 mg/kg (Rattus norvegicus, po): 16%
CC(=O)N1CCN=C1Nc1cc(C(C)C)nn1C [R1=Me, R2=Me2CH, R3=H, R4=COCH3, 1-Acetyl-2(3-isopropyl-1-methyl-5-pyrazolyl)amino-2-imidazoline] | 18 | 
Brc1cnn(C2CCCCC2)c1NC1=NCCN1 [R1=drawing 4, R2=H, R3=Br, R4=H, 2-(4-Bromo-1-cyclohexyl-5-pyrazolyl)-amino-2-imidazoline hydrochloride] | 15 | 
CC(=O)N1CCN=C1Nc1c(C)nn(C)c1Cl [R1=Me, R2=Me, R3=(5) C1, R4=COCH3, 1-acetyl-2-(5-chloro-1,3-dimethyl-4-pyrazolyl) amino-2-imidazoline hydrochloride] | 63 | inhibition in vivo at 25 mg/kg (rat): 39%
c1cc(NC2=NCCN2)n(C2CCCCC2)n1 [R1=drawing 5, R2=H, R3=H, R4=H, 2-(1-Cyclohexyl-5-pyrazolyl)-amino-2-imidazoline] | 15 | 
CC(C)c1nn(C(C)C)c(NC2=NCCN2)c1Br [R1=Me2CH, R2=Me2CH, R3=Br, R4=H, 2-(4-Bromo-1,3-di-isopropyl-5-pyrazolyl)amino-2-imidazoline hydrobromide] |  | inhibition in vivo at 100 mg/kg (Rattus norvegicus, po): 27%
CC(C)c1cc(NC2=NCCN2)n(C(C)C)n1 [R1=Me2CH, R2=Me2CH, R3=H, R4=H, 2-(1,3-Di-isopropyl-5-pyrazolyl)-amino-2-imidazoline] | 11 | 
